Measured values from US6488924B1, “Vitamin K adduct, particularly suitable as vitamin supplement for feeds” (Luigi Stoppani S.p.A., priority 1999, dated 2002).

Tests used:
[1] = Stability in extruded feed (fish farm feed); assay type: physicochemical; details: for menadione in feed, sampling point End point: after extrusion, drying and addition of fat; for menadione in feed, sampling point Mixer: after mixing, before extrusion
Procedure: Two preparations of vitamin supplement of approximately 2500 kg of feed were prepared for each vitamin K source. The vitamin K supplements were mixed in with the feed in an industrial mixer, extruded in a continuous extruder with the addition of live steam, dried and added with fat.

[2] = Characteristic parameters and comparative tests adduct vs MSB: solubility; assay type: physicochemical; details: at 25° C.
[3] = Thermal stability in air-circulation stove; assay type: physicochemical; details: absence of humidity
[4] = Thermal stability in controlled humidity (dispersed in aluminum silicate); assay type: physicochemical
Procedure: A method described in the literature is used to compare the stability of Kavist with respect to MSB. According to this method, the products, as accurately dispersed in aluminum silicate (K.F. humidity around 11%) at the level of 1.5% by weight, are kept at 55° C. for 3 days in order to evaluate their menadione content before and after the treatment. The menadione titers of the adduct according to the invention and the percentage of menadione left unchanged before and after the treatment are listed hereafter.

[5] = Stability under pressure (press on disk of finely ground powder); assay type: physicochemical; details: 30 minutes
[6] = Solubility in water (saturated solution in demineralized water); assay type: physicochemical; details: ambient temperature, saturated solution in presence of a precipitate
[7] = Release of menadione in aqueous medium; assay type: physicochemical; details: demineralized water, municipal drinking water, seawater
Procedure: The menadione release capacity of the adduct according to the invention and of MSB in three different types of water (demineralized water, municipal drinking water, and seawater) is evaluated.
The following table lists the milligrams/liter of menadione found in the solution with respect to the total menadione of the polymeric adduct added as a suspension equal to 1 g/l ([…] menadione on 1 g of dry adduct): […]

[8] = pH of the medium; cited from earlier work

SMILES | menadione in feed, sampling point End point ([1]; 1st preparation) | menadione in feed, sampling point Mixer ([1]; 1st preparation) | menadione in feed, sampling point End point ([1]; 2nd preparation) | menadione in feed, sampling point Mixer ([1]; 2nd preparation) | water solubility [2] | Men found/initial Men ([3]; 120° for 24 hours) | Color ([3]; after 120° for 24 hours) | Final menadione/initial menadione ([4]; 55° C. for 3 days in aluminum silicate (humidity around 11%)) | Final menadione content ([4]; after 55° C. for 3 days in aluminum silicate (humidity around 11%)) | Initial menadione content ([4]; before treatment, dispersed in aluminum silicate (humidity around 11%) at 1.5% by weight) | percentage of menadione left unchanged ([5]; 1 atm, 25° C.) | percentage of menadione left unchanged ([5]; 1 atm, 120° C.) | percentage of menadione left unchanged ([5]; 25 atm, 25° C.) | percentage of menadione left unchanged ([5]; 25 atm, 120° C.) | percentage of menadione left unchanged ([5]; 5000 atm, 25° C.) | percentage of menadione left unchanged ([5]; 5000 atm, 120° C.) | Menadione concentration mg/l saturated solution [6] | menadione release in water (in words) [7] | pH at which isomerization into poorly effective product becomes complete [8]
CC1(S(=O)(=O)O)CC(=O)c2ccccc2C1=O.NC(=O)c1cccnc1 (centres unmarked) [MNB, menadione nicotinamide bisulfite] | 22.7 mg/kg | 86.1 mg/kg | 18.1 mg/kg | 86.3 mg/kg | – | – | – | – | – | – | – | – | – | – | – | – | – | – | –
CC1(S(=O)(=O)[O-])CC(=O)c2ccccc2C1=O.[Na+] (centres unmarked) [MSB, menadione sodium bisulfite] | 21.0 mg/kg | 90.9 mg/kg | 16.1 mg/kg | 87.6 mg/kg | 50 g/100 ml at 25 °C | 0% | Purple | 15.5% | 0.24% | 1.52% | 100% | 20% | 100% | 15% | 80% | 10% | Higher than 20 × 10^4 mg mg/l | substantially instantaneous release | approximately 8.5
